Laboratory results reported in patent US20130123481A1, “MODIFIED NUCLEOSIDES, NUCLEOTIDES, AND NUCLEIC ACIDS, AND USES THEREOF” (MODERNA THERAPEUTICS, priority 2011, published 2013).

System: human embryonic kidney 293 (HEK293) cells
Assay: Toxicity of Nucleoside Triphosphates (NTPs), CYTO TOX-GLO assay
Format: cell-based
Details: HEK293; individual NTP 2.1 nM; 4 hr
Description: The cytotoxicity of natural and modified nucleoside triphosphates (NTPs) alone or in combination with other bases, was analyzed in human embryonic kidney 293 (HEK293) cells in the absence of transfection reagent. […] 10 ul of the NTPs outlined in Table 12 were combined with 10 ul of lipid dilution and incubated for 30 minutes to form a complex before 80 ul of the HEK293 cell suspension was added to the NTP complex. Natural and modified NTPs were transfected at a concentration of 2.1 nM, 21 nM, 210 nM, 2.1 um, 21 uM, 210 um or 2.1 mM. NTPs in combination were transfected at a total concentration of NTPs of 8.4 nM, 84 nM, 840 nM, 8.4 uM, 84 uM, 840 uM and 8.4 mM.

SMILES | percent of viable cells [%]
Cn1cc([C@@H]2O[C@H](CO)[C@@H](O)[C@H]2O)c(=O)[nH]c1=O [N1-methyl pseudouridine] | 91.89

Same assay, conditions: HEK293; individual NTP 2.1 nM; 24 hr

SMILES | percent of viable cells [%]
Cn1cc([C@@H]2O[C@H](CO)[C@@H](O)[C@H]2O)c(=O)[nH]c1=O [N1-methyl pseudouridine] | 87.79

Same assay, conditions: HEK293; individual NTP 2.1 nM; 48 hr

SMILES | percent of viable cells [%]
Cn1cc([C@@H]2O[C@H](CO)[C@@H](O)[C@H]2O)c(=O)[nH]c1=O [N1-methyl pseudouridine] | 87.81

Same assay, conditions: HEK293; individual NTP 2.1 nM; 72 hr

SMILES | percent of viable cells [%]
Cn1cc([C@@H]2O[C@H](CO)[C@@H](O)[C@H]2O)c(=O)[nH]c1=O [N1-methyl pseudouridine] | 92.98

Same assay, conditions: HEK293; individual NTP 21 nM; 4 hr

SMILES | percent of viable cells [%]
Cn1cc([C@@H]2O[C@H](CO)[C@@H](O)[C@H]2O)c(=O)[nH]c1=O [N1-methyl pseudouridine] | 91.44

Same assay, conditions: HEK293; individual NTP 21 nM; 24 hr

SMILES | percent of viable cells [%]
Cn1cc([C@@H]2O[C@H](CO)[C@@H](O)[C@H]2O)c(=O)[nH]c1=O [N1-methyl pseudouridine] | 86.85

Same assay, conditions: HEK293; individual NTP 21 nM; 48 hr

SMILES | percent of viable cells [%]
Cn1cc([C@@H]2O[C@H](CO)[C@@H](O)[C@H]2O)c(=O)[nH]c1=O [N1-methyl pseudouridine] | 86.72

Same assay, conditions: HEK293; individual NTP 21 nM; 72 hr

SMILES | percent of viable cells [%]
Cn1cc([C@@H]2O[C@H](CO)[C@@H](O)[C@H]2O)c(=O)[nH]c1=O [N1-methyl pseudouridine] | 92.84

Same assay, conditions: HEK293; individual NTP 210 nM; 4 hr

SMILES | percent of viable cells [%]
Cn1cc([C@@H]2O[C@H](CO)[C@@H](O)[C@H]2O)c(=O)[nH]c1=O [N1-methyl pseudouridine] | 92.15

Same assay, conditions: HEK293; individual NTP 210 nM; 24 hr

SMILES | percent of viable cells [%]
Cn1cc([C@@H]2O[C@H](CO)[C@@H](O)[C@H]2O)c(=O)[nH]c1=O [N1-methyl pseudouridine] | 85.89

Same assay, conditions: HEK293; individual NTP 210 nM; 48 hr

SMILES | percent of viable cells [%]
Cn1cc([C@@H]2O[C@H](CO)[C@@H](O)[C@H]2O)c(=O)[nH]c1=O [N1-methyl pseudouridine] | 87.38

Same assay, conditions: HEK293; individual NTP 210 nM; 72 hr

SMILES | percent of viable cells [%]
Cn1cc([C@@H]2O[C@H](CO)[C@@H](O)[C@H]2O)c(=O)[nH]c1=O [N1-methyl pseudouridine] | 92.40

Same assay, conditions: HEK293; individual NTP 2.1 uM; 4 hr

SMILES | percent of viable cells [%]
Cn1cc([C@@H]2O[C@H](CO)[C@@H](O)[C@H]2O)c(=O)[nH]c1=O [N1-methyl pseudouridine] | 90.41

Same assay, conditions: HEK293; individual NTP 2.1 uM; 24 hr

SMILES | percent of viable cells [%]
Cn1cc([C@@H]2O[C@H](CO)[C@@H](O)[C@H]2O)c(=O)[nH]c1=O [N1-methyl pseudouridine] | 85.72

Same assay, conditions: HEK293; individual NTP 2.1 uM; 48 hr

SMILES | percent of viable cells [%]
Cn1cc([C@@H]2O[C@H](CO)[C@@H](O)[C@H]2O)c(=O)[nH]c1=O [N1-methyl pseudouridine] | 85.85

Same assay, conditions: HEK293; individual NTP 2.1 uM; 72 hr

SMILES | percent of viable cells [%]
Cn1cc([C@@H]2O[C@H](CO)[C@@H](O)[C@H]2O)c(=O)[nH]c1=O [N1-methyl pseudouridine] | 92.25

Same assay, conditions: HEK293; individual NTP 21 uM; 4 hr

SMILES | percent of viable cells [%]
Cn1cc([C@@H]2O[C@H](CO)[C@@H](O)[C@H]2O)c(=O)[nH]c1=O [N1-methyl pseudouridine] | 91.48

Same assay, conditions: HEK293; individual NTP 21 uM; 24 hr

SMILES | percent of viable cells [%]
Cn1cc([C@@H]2O[C@H](CO)[C@@H](O)[C@H]2O)c(=O)[nH]c1=O [N1-methyl pseudouridine] | 85.17

Same assay, conditions: HEK293; individual NTP 21 uM; 48 hr

SMILES | percent of viable cells [%]
Cn1cc([C@@H]2O[C@H](CO)[C@@H](O)[C@H]2O)c(=O)[nH]c1=O [N1-methyl pseudouridine] | 87.52

Same assay, conditions: HEK293; individual NTP 21 uM; 72 hr

SMILES | percent of viable cells [%]
Cn1cc([C@@H]2O[C@H](CO)[C@@H](O)[C@H]2O)c(=O)[nH]c1=O [N1-methyl pseudouridine] | 93.83

Same assay, conditions: HEK293; individual NTP 210 uM; 4 hr

SMILES | percent of viable cells [%]
Cn1cc([C@@H]2O[C@H](CO)[C@@H](O)[C@H]2O)c(=O)[nH]c1=O [N1-methyl pseudouridine] | 91.43

Same assay, conditions: HEK293; individual NTP 210 uM; 24 hr

SMILES | percent of viable cells [%]
Cn1cc([C@@H]2O[C@H](CO)[C@@H](O)[C@H]2O)c(=O)[nH]c1=O [N1-methyl pseudouridine] | 86.48

Same assay, conditions: HEK293; individual NTP 210 uM; 48 hr

SMILES | percent of viable cells [%]
Cn1cc([C@@H]2O[C@H](CO)[C@@H](O)[C@H]2O)c(=O)[nH]c1=O [N1-methyl pseudouridine] | 86.02

Same assay, conditions: HEK293; individual NTP 210 uM; 72 hr

SMILES | percent of viable cells [%]
Cn1cc([C@@H]2O[C@H](CO)[C@@H](O)[C@H]2O)c(=O)[nH]c1=O [N1-methyl pseudouridine] | 93.03

Same assay, conditions: HEK293; individual NTP 2.1 mM; 4 hr

SMILES | percent of viable cells [%]
Cn1cc([C@@H]2O[C@H](CO)[C@@H](O)[C@H]2O)c(=O)[nH]c1=O [N1-methyl pseudouridine] | 92.45

Same assay, conditions: HEK293; individual NTP 2.1 mM; 24 hr

SMILES | percent of viable cells [%]
Cn1cc([C@@H]2O[C@H](CO)[C@@H](O)[C@H]2O)c(=O)[nH]c1=O [N1-methyl pseudouridine] | 88.92

Same assay, conditions: HEK293; individual NTP 2.1 mM; 48 hr

SMILES | percent of viable cells [%]
Cn1cc([C@@H]2O[C@H](CO)[C@@H](O)[C@H]2O)c(=O)[nH]c1=O [N1-methyl pseudouridine] | 89.84

Same assay, conditions: HEK293; individual NTP 2.1 mM; 72 hr

SMILES | percent of viable cells [%]
Cn1cc([C@@H]2O[C@H](CO)[C@@H](O)[C@H]2O)c(=O)[nH]c1=O [N1-methyl pseudouridine] | 96.80

Same assay, conditions: human, 4 h, 2.1 nM

SMILES | percent of viable cells [%]
Nc1cc[nH]c(=O)n1 [Cytosine] | 93.34

Same assay, conditions: human, 4 h, 21 nM

SMILES | percent of viable cells [%]
Nc1cc[nH]c(=O)n1 [Cytosine] | 93.11

Same assay, conditions: human, 4 h, 210 nM

SMILES | percent of viable cells [%]
Nc1cc[nH]c(=O)n1 [Cytosine] | 88.95

Same assay, conditions: human, 4 h, 2.1 uM

SMILES | percent of viable cells [%]
Nc1cc[nH]c(=O)n1 [Cytosine] | 90.49

Same assay, conditions: human, 4 h, 21 uM

SMILES | percent of viable cells [%]
Nc1cc[nH]c(=O)n1 [Cytosine] | 91.41

Same assay, conditions: human, 4 h, 210 uM

SMILES | percent of viable cells [%]
Nc1cc[nH]c(=O)n1 [Cytosine] | 89.88

Same assay, conditions: human, 4 h, 2.1 mM

SMILES | percent of viable cells [%]
Nc1cc[nH]c(=O)n1 [Cytosine] | 90.51

Same assay, conditions: human, 24 h, 2.1 nM

SMILES | percent of viable cells [%]
Nc1cc[nH]c(=O)n1 [Cytosine] | 85.78

Same assay, conditions: human, 24 h, 21 nM

SMILES | percent of viable cells [%]
Nc1cc[nH]c(=O)n1 [Cytosine] | 86.16

Same assay, conditions: human, 24 h, 210 nM

SMILES | percent of viable cells [%]
Nc1cc[nH]c(=O)n1 [Cytosine] | 86.12

Same assay, conditions: human, 24 h, 2.1 uM

SMILES | percent of viable cells [%]
Nc1cc[nH]c(=O)n1 [Cytosine] | 86.70

Same assay, conditions: human, 24 h, 21 uM

SMILES | percent of viable cells [%]
Nc1cc[nH]c(=O)n1 [Cytosine] | 85.72

Same assay, conditions: human, 24 h, 210 uM

SMILES | percent of viable cells [%]
Nc1cc[nH]c(=O)n1 [Cytosine] | 86.33

Same assay, conditions: human, 24 h, 2.1 mM

SMILES | percent of viable cells [%]
Nc1cc[nH]c(=O)n1 [Cytosine] | 86.92

Same assay, conditions: human, 48 h, 2.1 nM

SMILES | percent of viable cells [%]
Nc1cc[nH]c(=O)n1 [Cytosine] | 88.99

Same assay, conditions: human, 48 h, 21 nM

SMILES | percent of viable cells [%]
Nc1cc[nH]c(=O)n1 [Cytosine] | 88.95

Same assay, conditions: human, 48 h, 210 nM

SMILES | percent of viable cells [%]
Nc1cc[nH]c(=O)n1 [Cytosine] | 85.36

Same assay, conditions: human, 48 h, 2.1 uM

SMILES | percent of viable cells [%]
Nc1cc[nH]c(=O)n1 [Cytosine] | 87.73

Same assay, conditions: human, 48 h, 21 uM

SMILES | percent of viable cells [%]
Nc1cc[nH]c(=O)n1 [Cytosine] | 87.28

Same assay, conditions: human, 48 h, 210 uM

SMILES | percent of viable cells [%]
Nc1cc[nH]c(=O)n1 [Cytosine] | 87.81

Same assay, conditions: human, 48 h, 2.1 mM

SMILES | percent of viable cells [%]
Nc1cc[nH]c(=O)n1 [Cytosine] | 94.23

Same assay, conditions: human, 72 h, 2.1 nM

SMILES | percent of viable cells [%]
Nc1cc[nH]c(=O)n1 [Cytosine] | 94.22

Same assay, conditions: human, 72 h, 21 nM

SMILES | percent of viable cells [%]
Nc1cc[nH]c(=O)n1 [Cytosine] | 91.80

Same assay, conditions: human, 72 h, 210 nM

SMILES | percent of viable cells [%]
Nc1cc[nH]c(=O)n1 [Cytosine] | 88.22

Same assay, conditions: human, 72 h, 2.1 uM

SMILES | percent of viable cells [%]
Nc1cc[nH]c(=O)n1 [Cytosine] | 88.93

Same assay, conditions: human, 72 h, 21 uM

SMILES | percent of viable cells [%]
Nc1cc[nH]c(=O)n1 [Cytosine] | 92.22

Same assay, conditions: human, 72 h, 210 uM

SMILES | percent of viable cells [%]
Nc1cc[nH]c(=O)n1 [Cytosine] | 92.34

Same assay, conditions: human, 72 h, 2.1 mM

SMILES | percent of viable cells [%]
Nc1cc[nH]c(=O)n1 [Cytosine] | 97.15
